From patent US8211929B2, “Pyrimidine derivatives as kinase modulators and method of use” (Exelixis, Inc., priority 2004, dated 2012)
Like-named read-outs stand apart in the source and are kept apart here.

Tests used:
IGF 3P = molecular target: T1, IGF 3P (Homo sapiens, UniProt P08069); assay: IGF1R kinase assay (LCCA), IGF 3P; format: biochemical
T1 construct: human IGF1R kinase domain residues M954-C1367; made in house; host or cells: baculovirus expression (insect cells)
Description: (§1) Kinase activity and compound inhibition are investigated using one or more of the three assay formats described below. The ATP concentrations for each assay are selected to be close to the Michaelis-Menten constant (KM) for each individual kinase. Dose-response experiments are performed at 10 different inhibitor concentrations in a 384-well plate format. […] Y=Min+(Max−Min)/(1+(X/IC50)^H) Equation (2)
(§2) IGF1R kinase biochemical activity was assessed using a Luciferase-Coupled Chemiluminescent Kinase assay (LCCA) format. Kinase activity was measured as the percent ATP remaining following the kinase reaction. Remaining ATP was detected by luciferase-luciferin-coupled chemiluminescence. Specifically, the reaction was initiated by mixing test compounds, 3 μM ATP, 4 μM poly EY peptide and 4 nM IGF1R (baculovirus expressed human IGF1R kinase domain residues M954-C1367) in a 20 uL assay buffer (20 mM Tris-HCL pH7.5, 10 mM MgCl2, 0.02% Triton X-100, 1 mM DTT, 2 mM MnCl2). The mixture is incubated at ambient temperature for 2 hours after which 20 uL luciferase-luciferin mix is added and the chemiluminescent signal read using a Wallac Victor^2 reader.

[1] = molecular target: T2, (Homo sapiens, UniProt P08069); assay: IGF1R kinase assay (LCCA), IGF 0P; format: biochemical
T2 construct: human IGF1R kinase domain residues M954-C1367; made in house; host or cells: baculovirus expression (insect cells)
T2 sequence (P08069 954-1367): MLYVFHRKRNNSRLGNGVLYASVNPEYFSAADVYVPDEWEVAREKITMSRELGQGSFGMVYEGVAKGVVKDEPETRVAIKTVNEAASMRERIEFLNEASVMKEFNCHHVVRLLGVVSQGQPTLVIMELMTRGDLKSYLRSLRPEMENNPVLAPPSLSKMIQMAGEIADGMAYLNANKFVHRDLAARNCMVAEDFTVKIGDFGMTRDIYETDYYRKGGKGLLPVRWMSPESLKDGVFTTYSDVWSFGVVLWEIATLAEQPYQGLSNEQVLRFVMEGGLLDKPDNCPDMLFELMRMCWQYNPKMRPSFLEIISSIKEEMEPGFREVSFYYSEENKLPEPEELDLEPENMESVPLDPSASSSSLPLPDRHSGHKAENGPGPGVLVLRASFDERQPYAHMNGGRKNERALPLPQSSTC
Description: as §1, §2

T1 sequence (P08069 954-1367): as above

IC50 (IGF 3P; IGF1R kinase LCCA assay) | IC50 ([1]; IGF1R kinase LCCA assay) | other results | Compound
 |  | IC50 (IGF 3P): < 50 nM; IC50 [1]: 50 to 500 nM | c1cc(-c2cc(CNc3nc(Nc4cc(C5CC5)[nH]n4)cc(N4CCOCC4)n3)on2)ncn1 [Example 637, N^4-(5-cyclopropyl-1H-pyrazol-3-yl)-6-morpholin-4-yl-N^2-[(3-pyrimidin-4-ylisoxazol-5-yl)methyl]pyrimidine-2,4-diamine]
> 5000 nM | 500 to 5000 nM |  | FC(F)(F)c1cccc(CNc2ncc(Br)c(Nc3cc(C4CC4)n[nH]3)n2)c1 [Example 263]
500 to 5000 nM | 500 to 5000 nM |  | CN(C)c1ccc(Nc2nccc(Nc3cc(C4CC4)n[nH]3)n2)cc1 [Example 238]
500 to 5000 nM | 500 to 5000 nM |  | N#Cc1ccc(Nc2ncc(Br)c(Nc3cc(C4CC4)n[nH]3)n2)cc1 [Example 166]
50 to 500 nM | 500 to 5000 nM |  | Cc1cc(Nc2cc(C3CC3)n[nH]2)nc(Nc2ccc3c(c2)CNCC3)n1 [Example 545]
500 to 5000 nM | > 5000 nM |  | CCN(CC)CCCNc1nc(Nc2cc(C3CC3)n[nH]2)c(Cl)c(Nc2ccccc2Cl)n1 [Example 160]
500 to 5000 nM | 50 to 500 nM |  | CN(c1ccccc1)c1ncc(Br)c(Nc2cc(C3CC3)[nH]n2)n1 [Example 223]
< 50 nM | 50 to 500 nM |  | CC(C)c1cc(Nc2cc(OCCN(C)C)nc(NCc3cc(-c4ccccc4)no3)n2)n[nH]1 [Example 518]
> 5000 nM | > 5000 nM |  | FC(F)(F)c1cc(Br)cc(Nc2ncc(Br)c(Nc3cc(C4CC4)n[nH]3)n2)c1 [Example 305]
50 to 500 nM | 500 to 5000 nM |  | CN1CCN(C(=O)CCc2cccc(Nc3ncc(Br)c(Nc4cc(C5CC5)n[nH]4)n3)c2)CC1 [Example 100]
50 to 500 nM | 500 to 5000 nM |  | Brc1cnc(Nc2ccc(N3CCOCC3)nc2)nc1Nc1cc(C2CC2)n[nH]1 [Example 81]
500 to 5000 nM | 500 to 5000 nM |  | Cc1cc(Nc2cc(C3CC3)[nH]n2)nc(NCc2nc(-c3ccccc3)cs2)n1 [Example 252]
 |  | IC50 (IGF 3P): < 50 nM; IC50 [1]: 50 to 500 nM | CC(=O)N1CCN(c2cc(Nc3cc(C4CC4)[nH]n3)nc(NCc3cc(C(C)C)no3)n2)CC1 [Example 614, 6-(4-acetylpiperazin-1-yl)-N^4-(5-cyclopropyl-1H-pyrazol-3-yl)-N^2-{[3-(1-methylethyl)isoxazol-5-yl]methyl}pyrimidine-2,4-diamine]
500 to 5000 nM | 500 to 5000 nM |  | Cc1cc(Nc2cc(C3CC3)n[nH]2)nc(Nc2ccc3cc(C(=O)NCCN4CCCC4)sc3c2)n1 [Example 173]
500 to 5000 nM | 500 to 5000 nM |  | Cc1ccc(C(C)C)cc1Nc1ncc(Br)c(Nc2cc(C3CC3)n[nH]2)n1 [Example 165]
50 to 500 nM | 500 to 5000 nM |  | Brc1cc(CNc2ncc(Br)c(Nc3cc(C4CC4)[nH]n3)n2)on1 [Example 72]
 |  | IC50 (IGF 3P): 500 to 5000 nM; IC50 [1]: 50 to 500 nM | Cc1cc(Nc2cc(C3CC3)[nH]n2)nc(OCc2cc(-c3ccccc3)no2)n1 [Example 584, N-(5-cyclopropyl-1H-pyrazol-3-yl)-6-methyl-2-{[(3-phenylisoxazol-5-yl)methyl]oxy}pyrimidin-4-amine]
> 5000 nM | > 5000 nM |  | COc1cc(Nc2nc(C)cc(Nc3cc(C4CC4)n[nH]3)n2)cc(C(F)(F)F)c1 [Example 302]
50 to 500 nM | 500 to 5000 nM |  | Cc1ccc(CNc2ncc(Br)c(Nc3cc(C4CC4)n[nH]3)n2)o1 [Example 142]
> 5000 nM | > 5000 nM |  | CCCCNc1cc(C)nc(Nc2ccc(N3CCOCC3)cc2)n1 [Example 294]
> 5000 nM | > 5000 nM |  | CC(=O)N1CCC(n2cc(-c3cccc(OCc4ccccc4)c3)c3c(N)ncnc32)CC1 [Example 349]
50 to 500 nM | 500 to 5000 nM |  | Cc1cc(Nc2nc(Nc3ccccc3)ncc2Br)[nH]n1 [Example 90]
> 5000 nM | > 5000 nM |  | Brc1cnc(Nc2ccncc2)nc1Nc1cc(C2CC2)[nH]n1 [Example 316]
> 5000 nM | > 5000 nM |  | Nc1cccc(Nc2nc(NCc3cc(-c4ccccc4)no3)ncc2Br)n1 [Example 291]
< 50 nM | 50 to 500 nM |  | CCN(CC)CCNC(=O)c1cc(Nc2cc(C3CC3)[nH]n2)nc(NCc2cc(-c3ccccc3)no2)n1 [Example 530]
500 to 5000 nM | 500 to 5000 nM |  | Cc1cc(Nc2cc(C3CC3)n[nH]2)nc(Nc2ccc(CCN3CCCCC3)cc2)n1 [Example 554]

IC50 (IGF 3P; IGF1R kinase LCCA assay) | IC50 ([1]; IGF1R kinase LCCA assay) | other results | Compound
50 to 500 nM | 50 to 500 nM |  | Brc1cnc(Nc2ccc3c(c2)OCCO3)nc1Nc1cc(C2CC2)n[nH]1 [Example 104]
> 5000 nM | > 5000 nM |  | Cc1cc(Nc2cc(C)on2)nc(NCc2cc(-c3ccccc3)no2)n1 [Example 307]
< 50 nM | 50 to 500 nM |  | CCN(CC)CCCNc1cc(Nc2cc(C3CC3)[nH]n2)nc(NCc2cc(-c3ccccc3)no2)n1 [Example 42]
500 to 5000 nM | 500 to 5000 nM |  | CNCCc1ccc(Nc2nc(C)cc(Nc3cc(C4CC4)n[nH]3)n2)cc1 [Example 540]
> 5000 nM | > 5000 nM |  | Brc1cnc(NC(Cc2ccccc2)c2ccccc2)nc1Nc1cc(C2CC2)[nH]n1 (centres unmarked) [Example 333]
< 50 nM | 50 to 500 nM |  | CN1CCN(CCNc2cc(Nc3cc(C4CC4)[nH]n3)nc(NCc3cc(-c4ccccc4)no3)n2)CC1 [Example 509]
 |  | IC50 (IGF 3P): < 50 nM; IC50 [1]: 50 to 500 nM | CCc1cc(CNc2nc(Nc3cc(C4CC4)n[nH]3)cc(N3CCOCC3)n2)on1 [Example 656, N^4-(3-cyclopropyl-1H-pyrazol-5-yl)-N^2-[(3-ethylisoxazol-5-yl)methyl]-6-morpholin-4-ylpyrimidine-2,4-diamine]
500 to 5000 nM | > 5000 nM |  | CN(C)CCCNc1ncc(Br)c(Nc2cc(C3CC3)n[nH]2)n1 [Example 254]
 |  | IC50 (IGF 3P): < 50 nM; IC50 [1]: 50 to 500 nM | CN1CCN(c2cc(Nc3cc(C4CC4)[nH]n3)nc(NCc3cc(-c4nccs4)no3)n2)CC1 [Example 648, N^4-(5-cyclopropyl-1H-pyrazol-3-yl)-6-(4-methylpiperazin-1-yl)-N^2-{[3-(1,3-thiazol-2-yl)isoxazol-5-yl]methyl}pyrimidine-2,4-diamine]
> 5000 nM | > 5000 nM |  | Brc1cnc(NCc2cc(-c3ccccc3)cs2)nc1Nc1cc(C2CC2)n[nH]1 [Example 271]
500 to 5000 nM | 50 to 500 nM |  | Clc1ccccc1Nc1nc(Nc2cc(C3CC3)n[nH]2)c2nc[nH]c2n1 [Example 210]
50 to 500 nM | 500 to 5000 nM |  | CC(C)(C)OC(=O)N1CC[C@@H](NC(=O)c2ccc(Nc3ncc(Br)c(Nc4cc(C5CC5)n[nH]4)n3)cc2)C1 [Example 145]
 |  | IC50 (IGF 3P): < 50 nM; IC50 [1]: 50 to 500 nM | Cc1cc(Nc2cc(N3CCN(C)CC3)nc(NCc3cc(-c4ccccc4)no3)n2)[nH]n1 [Example 618, 6-(4-methylpiperazin-1-yl)-N^4-(3-methyl-1H-pyrazol-5-yl)-N^2-[(3-phenylisoxazol-5-yl)methyl]pyrimidine-2,4-diamine]
50 to 500 nM | 500 to 5000 nM |  | O=S(=O)(c1ccc(Nc2ncc(Br)c(Nc3cc(C4CC4)n[nH]3)n2)cc1)N1CCOCC1 [Example 140]
 |  | IC50 (IGF 3P): < 50 nM; IC50 [1]: 50 to 500 nM | Cc1cc(Nc2cc(C3CC3)[nH]n2)nc(NCc2cc(-c3cnccn3)no2)n1 [Example 623, N^4-(5-cyclopropyl-1H-pyrazol-3-yl)-6-methyl-N^2-[(3-pyrazin-2-ylisoxazol-5-yl)methyl]pyrimidine-2,4-diamine]
< 50 nM | 50 to 500 nM |  | Cc1cc(Nc2cc(C3CC3)[nH]n2)nc(NCc2cc(-c3ccc(F)cc3)no2)n1 [Example 500]
50 to 500 nM | 500 to 5000 nM |  | CN1CCN(C(=O)c2ccc(Nc3ncc(Br)c(Nc4cc(C5CC5)n[nH]4)n3)cc2)CC1 [Example 124]
> 5000 nM | > 5000 nM |  | Clc1ccccc1CCNc1ncc(Br)c(Nc2cc(C3CC3)n[nH]2)n1 [Example 272]
500 to 5000 nM | 50 to 500 nM |  | Cc1cc(Nc2cc(C3CC3)[nH]n2)nc(NCc2cc(-c3ccc(Cl)cc3)no2)n1 [Example 178]
50 to 500 nM | 500 to 5000 nM |  | Cc1cc(Nc2cc(C3CC3)n[nH]2)nc(Nc2ccc(CCN3CCCC3)cc2)n1 [Example 551]
 |  | IC50 (IGF 3P; IGF1R kinase LCCA assay, IGF 3P): < 50 nM; IC50 ([1]; IGF1R kinase LCCA assay, IGF 0P): 50 to 500 nM | CC(C)c1cc(CNc2nc(Nc3cc(C4CC4)[nH]n3)cc(N3CCN[C@H](C)C3)n2)on1 [Example 557]
50 to 500 nM | 50 to 500 nM |  | NS(=O)(=O)c1ccc(Nc2ncc(Br)c(Nc3cc(C4CC4)n[nH]3)n2)cc1 [Example 91]
> 5000 nM | > 5000 nM |  | Nc1ccc(Nc2nc(Nc3cc(C4CC4)n[nH]3)ncc2Br)cc1 [Example 327]
 |  | IC50 (IGF 3P): < 50 nM; IC50 [1]: 50 to 500 nM | CC(C)c1cc(Nc2cc(OCCN3CCOCC3)nc(NCc3cc(-c4ccccc4)no3)n2)n[nH]1 [Example 588, N^4-[5-(1-methylethyl)-1H-pyrazol-3-yl]-6-[(2-morpholin-4-ylethyl)oxy]-N^2-[(3-phenylisoxazol-5-yl)methyl]pyrimidine-2,4-diamine]
> 5000 nM | > 5000 nM |  | Clc1ccccc1Nc1ncc(Br)c(Nc2cc(C3CC3)on2)n1 [Example 286]
< 50 nM | 50 to 500 nM |  | Cc1cc(Nc2cc(C3CC3)n[nH]2)nc(Nc2ccc3cc(C(=O)NCCN4CCCC4)ccc3c2)n1 [Example 49]
